A word on the melting point: it is the temperature of the solid-liquid transition.

Where a name gives a salt, the structure may show the parent alone. Some results are limits rather than exact numbers.

The target in data set [1] is T1, human liver-glucuronidase (hβG) (Homo sapiens, UniProt P08236).
T1 sequence (P08236 23-651): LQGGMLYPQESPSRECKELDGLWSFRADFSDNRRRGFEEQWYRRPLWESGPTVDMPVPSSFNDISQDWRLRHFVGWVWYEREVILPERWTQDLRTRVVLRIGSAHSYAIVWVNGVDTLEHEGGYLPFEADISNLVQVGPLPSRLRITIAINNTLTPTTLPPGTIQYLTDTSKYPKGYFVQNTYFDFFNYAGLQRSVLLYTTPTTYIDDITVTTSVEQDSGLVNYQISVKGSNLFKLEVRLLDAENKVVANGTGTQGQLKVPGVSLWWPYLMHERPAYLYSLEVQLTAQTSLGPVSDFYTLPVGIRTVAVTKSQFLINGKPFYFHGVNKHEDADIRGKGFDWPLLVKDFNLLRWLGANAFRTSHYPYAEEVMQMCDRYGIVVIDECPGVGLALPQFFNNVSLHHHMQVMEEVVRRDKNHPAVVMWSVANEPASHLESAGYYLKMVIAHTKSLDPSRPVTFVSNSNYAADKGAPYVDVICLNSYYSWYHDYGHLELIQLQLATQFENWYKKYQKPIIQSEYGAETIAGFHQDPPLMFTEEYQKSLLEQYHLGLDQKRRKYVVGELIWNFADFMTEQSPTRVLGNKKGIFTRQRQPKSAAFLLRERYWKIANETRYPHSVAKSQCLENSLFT
In words: Inhibition of purified recombinant hβG activity (pNPG substrate, OD420). The format is biochemical. To be noted: 10 μM, purified recombinant hβG, pNPG, means ± S.D. of at least three separate experiments; for remaining activity at 10 µM: read-out: Percent activity of human liver-glucuronidase at 10 μM (%). Here is the method: (§1) The pyrazolo[4,3-c]quinoline derivatives were examined for their inhibition against eβG or hβG activity. Purified recombinant eβG or hβG proteins were incubated with serial dilution of the inhibitors, respectively. The βG activity was determined by color development of a βG substrate, pNPG. The hydrolysis product of pNPG, PNP was measured by OD420.

Data set [2] has as its target E. coli β-glucuronidase (eβG) (Escherichia coli, UniProt P05804). The data set is described as follows: Inhibition of purified recombinant eβG activity (pNPG substrate, OD420). The format is biochemical. To be noted: for remaining activity at 10 µM: read-out: Percent activity of E. coli-glucuronidase at 10 μM (%). Here is the method:
as §1

Sequence of E. coli β-glucuronidase (eβG) (P05804 whole entry): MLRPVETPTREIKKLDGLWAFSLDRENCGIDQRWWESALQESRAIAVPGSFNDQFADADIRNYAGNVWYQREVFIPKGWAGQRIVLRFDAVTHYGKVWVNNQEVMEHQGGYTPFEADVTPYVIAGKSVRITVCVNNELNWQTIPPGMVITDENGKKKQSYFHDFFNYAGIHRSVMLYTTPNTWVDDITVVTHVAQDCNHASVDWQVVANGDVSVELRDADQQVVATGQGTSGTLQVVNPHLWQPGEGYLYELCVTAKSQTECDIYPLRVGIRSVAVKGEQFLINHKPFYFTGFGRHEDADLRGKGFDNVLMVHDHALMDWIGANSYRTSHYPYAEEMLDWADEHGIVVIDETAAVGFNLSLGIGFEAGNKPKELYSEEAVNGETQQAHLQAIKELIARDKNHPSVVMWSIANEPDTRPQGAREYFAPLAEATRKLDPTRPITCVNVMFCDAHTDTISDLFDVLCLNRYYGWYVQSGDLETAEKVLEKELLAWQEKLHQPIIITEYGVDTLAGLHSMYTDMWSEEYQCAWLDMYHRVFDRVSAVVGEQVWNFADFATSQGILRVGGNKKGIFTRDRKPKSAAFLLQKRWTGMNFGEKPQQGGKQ

As for `Cc1cccc(Nc2nc3ccccc3c3[nH]nc(N)c23)c1` (as salt: salt) [Compound 25, N^4-(m-Tolyl)-1H-pyrazolo[4,3-c]quinoline-3,4-diamine], the melting point lay within 281 to 282 °C.
Consider `Nc1n[nH]c2c1c(Nc1cccc(Cl)c1)nc1ccccc12` [Compound 26, N^4-(3-Chlorophenyl)-1H-pyrazolo[4,3-c]quinoline-3,4-diamine], for which the melting point lay within 227 to 229 °C. Also, the remaining activity at 10 µM in data set [1] came out at 97.78 ± 0.01%. In addition, in data set [2], the remaining activity at 10 µM stood at 14.9 ± 2.31%.
With `Cc1ccc(Nc2nc3ccccc3c3[nH]nc(NC(=O)Nc4ccccc4)c23)cc1` [Compound 37, 1-Phenyl-3-[4-(p-tolylamino)-1H-pyrazolo[4,3-c]quinolin-3-yl]urea], the melting point was in the range of 212 to 213 °C. Also, the remaining activity at 10 µM in data set [1] is 82 ± 1.41%. Besides, the remaining activity at 10 µM in data set [2] came to 3 ± 1%.
For `Nc1n[nH]c2c1c(Nc1ccccc1Cl)nc1ccccc12` [Compound 31, N^4-(2-Chlorophenyl)-1H-pyrazolo[4,3-c]quinoline-3,4-diamine], the melting point fell in the range of 243 to 244 °C. Besides, the remaining activity at 10 µM in data set [1] was 79.81 ± 0.01%. Moreover, in data set [2], the remaining activity at 10 µM amounted to 29.7 ± 3%.
For `COc1ccc(NC(=O)Nc2n[nH]c3c2c(Nc2ccc(C)cc2)nc2ccccc23)cc1` [Compound 39, 1-(4-Methoxyphenyl)-3-[4-(p-tolylamino)-1H-pyrazolo[4,3-c]-quinolin-3-yl]urea], in that order: 163 to 164 °C, 87.5 ± 2.12% and 3.5 ± 0.71%.
`Cc1ccc(Nc2nc3ccc(Cl)cc3c3[nH]nc(N)c23)cc1` (as salt: salt) [Compound 11, 8-Chloro-N^4-(p-tolyl)-1H-pyrazolo[4,3-c]quinoline-3,4-diamine] displayed a melting point of 261 °C.
For `Nc1n[nH]c2c1c(Nc1ccc(Cl)cc1)nc1cc(F)ccc12` [Compound 8, N^4-(4-Chlorophenyl)-7-fluoro-1H-pyrazolo[4,3-c]quinoline-3,4-diamine], the melting point is 254 °C (dec.). Further, the remaining activity at 10 µM in data set [1] turned out to be 83.5 ± 0.71%. Besides, in data set [2], the remaining activity at 10 µM amounted to 4 ± 1%.
Take `Nc1n[nH]c2c1c(Nc1cccc(O)c1)nc1ccccc12` (as salt: salt) [Compound 24, 3-Amino-4-(3-hydroxyphenylamino)-1H-pyrazolo[4,3-c]quinoline]: the melting point lay in the range of 319 to 321 °C.
Same read-out and setting: the figure for `CC(=O)c1ccc(Nc2nc3ccccc3c3[nH]nc(N)c23)cc1` (as salt: salt) [Compound 23, 3-Amino-4-(4-acetylphenylamino)-1H-pyrazolo[4,3-c]quinoline] is 249 to 251 °C.
Regarding `CC(=O)c1cccc(Nc2nc3ccccc3c3[nH]nc(N)c23)c1` [Compound 28, 3-Amino-4-(3-acetylphenylamino)-1H-pyrazolo[4,3-c]quinoline], the melting point was above 380 °C. The remaining activity at 10 µM in data set [1] came to 93 ± 2.83%. Besides, the remaining activity at 10 µM in data set [2] amounted to 91 ± 1%.
In the case of `O=C(Nc1ccccc1)Nc1n[nH]c2c1c(Nc1ccc(Cl)cc1)nc1ccccc12` [Compound 36, 1-{4-[(4-Chlorophenyl)amino]-1H-pyrazolo[4,3-c]quinolin-3-yl}-3-phenylurea], the melting point fell in the range of 282 to 283 °C. Besides, the remaining activity at 10 µM in data set [1] is 83.1 ± 1.29%. The remaining activity at 10 µM in data set [2] was determined as 4 ± 1%.
Regarding `Nc1n[nH]c2c1c(Nc1ccc(Cl)cc1)nc1ccc(Cl)cc12` [Compound 10, 8-Chloro-N^4-(4-chlorophenyl)-1H-pyrazolo[4,3-c]quinoline-3,4-diamine], the remaining activity at 10 µM was found to be 77 ± 1.41% in data set [1] and 3 ± 1% in data set [2].
For `Cc1ccc(Nc2nc3ccc(Cl)cc3c3[nH]nc(N)c23)cc1` [Compound 11, 8-Chloro-N^4-(p-tolyl)-1H-pyrazolo[4,3-c]quinoline-3,4-diamine], in that order: 80.5 ± 2.12% and 3 ± 1%.
For `Cc1ccc(Nc2nc3cc(F)ccc3c3[nH]nc(N)c23)cc1` [Compound 9, 7-Fluoro-N^4-(p-tolyl)-1H-pyrazolo[4,3-c]quinoline-3,4-diamine], in that order: 81.5 ± 0.71% and 4 ± 1%.
With `CSc1ccc(Nc2nc3ccccc3c3[nH]nc(N)c23)cc1` (as salt: salt) [Compound 20, 3-Amino-4-(4-methylthiophenylamino)-1H-pyrazolo[4,3-c]quinoline], the melting point is 269 to 271 °C.
`COc1ccc(NC(=O)Nc2n[nH]c3c2c(Nc2ccc(Cl)cc2)nc2ccccc23)cc1` [Compound 38, 1-{4-[(4-Chlorophenyl)amino]-1H-pyrazolo[4,3-c]quinolin-3-yl}-3-(4-methoxyphenyl)urea] registered a melting point of 211 to 212 °C. The remaining activity at 10 µM in data set [1] was 85.5 ± 0.71%. Moreover, the remaining activity at 10 µM in data set [2] is 4 ± 1%.
For `CC(=O)c1ccc(Nc2nc3ccccc3c3[nH]nc(N)c23)cc1` [Compound 23, 3-Amino-4-(4-acetylphenylamino)-1H-pyrazolo[4,3-c]quinoline], the remaining activity at 10 µM in data set [1] is 104 ± 1.41%; in data set [2], 3 ± 1%.
For `Nc1n[nH]c2c1c(Nc1cccc(O)c1)nc1ccccc12` [Compound 24, 3-Amino-4-(3-hydroxyphenylamino)-1H-pyrazolo[4,3-c]quinoline], in that order: 105 ± 1.41% and 13.5 ± 0.71%.
For `Cc1cccc(Nc2nc3ccccc3c3[nH]nc(N)c23)c1` [Compound 25, N^4-(m-Tolyl)-1H-pyrazolo[4,3-c]quinoline-3,4-diamine], in that order: 102 ± 2.08% and 69.9 ± 0.02%.
As for `Nc1n[nH]c2c1c(Nc1ccc(C(=O)O)cc1)nc1ccccc12` (as salt: salt) [Compound 22, 4-(3-Amino-1H-pyrazolo[4,3-c]quinolin-4-ylamino)benzoic acid], the melting point lay in the range of 362 to 364 °C.
Take `Nc1n[nH]c2c1c(Nc1ccc([N+](=O)[O-])cc1)nc1ccccc12` [Compound 21, 3-Amino-4-(4-nitrophenylamino)-1H-pyrazolo[4,3-c]quinoline]: the remaining activity at 10 µM in data set [1] worked out at 90.86 ± 0.32%; in data set [2], 46.5 ± 4.95%.
Consider `Cc1ccc(Nc2nc3cc(F)ccc3c3[nH]nc(N)c23)cc1` (as salt: salt) [Compound 9, 7-Fluoro-N^4-(p-tolyl)-1H-pyrazolo[4,3-c]quinoline-3,4-diamine], for which the melting point lay within 246 to 247 °C.
Regarding `Cc1ccc(Nc2nc3ccc(Br)cc3c3[nH]nc(N)c23)cc1` [Compound 13, S-Bromo-N^4-(p-tolyl)-1H-pyrazolo[4,3-c]quinoline-3,4-diamine], in data set [1], the “Percent activity of human liver-glucuronidase at 10 μM (%)” value is reported as 80.21 ± 2.14%. In addition, the “Percent activity of E. coli-glucuronidase at 10 μM (%)” value in data set [2] (10 μM, purified recombinant eβG, pNPG, means ± S.D. of at least three separate experiments) is 4 ± 1%.
Regarding `Nc1n[nH]c2c1c(Nc1ccc(C(=O)O)cc1)nc1ccccc12` [Compound 22, 4-(3-Amino-1H-pyrazolo[4,3-c]quinolin-4-ylamino)benzoic acid], the remaining activity at 10 µM in data set [1] is 95 ± 4.24%; in data set [2], 15.5 ± 1.71%.
For `Nc1n[nH]c2c1c(Nc1ccc(Cl)cc1)nc1ccc(Cl)cc12` (as salt: salt) [Compound 10, 8-Chloro-N^4-(4-chlorophenyl)-1H-pyrazolo[4,3-c]quinoline-3,4-diamine], the melting point fell in the range of 270 to 272 °C.
On the same count and under the same terms, with `Nc1n[nH]c2c1c(Nc1ccc([N+](=O)[O-])cc1)nc1ccccc12` (as salt: salt) [Compound 21, 3-Amino-4-(4-nitrophenylamino)-1H-pyrazolo[4,3-c]quinoline] the figure was 303 to 305 °C.
`CSc1ccc(Nc2nc3ccccc3c3[nH]nc(N)c23)cc1` [Compound 20, 3-Amino-4-(4-methylthiophenylamino)-1H-pyrazolo[4,3-c]quinoline]: the remaining activity at 10 µM in data set [1] worked out at 108 ± 3.54%; in data set [2], 5 ± 1.41%.
Consider `O=C(Nc1ccccc1)Nc1n[nH]c2c1c(=O)[nH]c1ccccc12` [Compound 34, 1-(4-oxo-4,5-dihydro-1H-pyrazolo[4,3-c]quinolin-3-yl)-3-phenylurea], for which the remaining activity at 10 µM in data set [1] was 82 ± 1.41%; in data set [2], 86 ± 1%.
Regarding `CCOc1ccc(NC(=S)N(CCO)Cc2cc3cc(C)cc(C)c3[nH]c2=O)cc1` [βG-Inh, 1-((6,8-Dimethyl-2-oxo-1,2-dihydroquinolin-3-yl)methyl)-3-(4-ethoxyphenyl)-1-(2-hydroxyethyl) thiourea, reference compound], the remaining activity at 10 µM in data set [2] turned out to be 3 ± 1%.
